Like-named read-outs stand apart in the source and are kept apart here.

The subject of one data set is albino mouse. To be noted: oral, comparison value; cited from earlier work.
Data set [1] has as its system Musca domestica. Nature of the data set: Activity test on Musca domestica, topical application. Format: in vivo. The protocol:
Activity of "Musca domestica" by O-methyl-O-(2,4,5-trichlorophenyl)-phosphoroamidothioates with relationship to the weight of the alkyl group bound to the nitrogen atom (iso-C3 H7 = 1) in comparison with that of the compound of Example 1 of this invention (in a quantity of 0.5 γ/insect):
Adult 4-day flies were treated by topical application by means of a micro-syringe of 1 cubic millimeters (mm^3) of an acetone solution at 0.5 γ/ .mm^3 according to Example 1. […] (The death-rate of the flies treated with 1 .mm^3 of acetone under the same conditions was equal to 0).

A further data set concerns Macrosiphum Euphorbiae. As to the kind of experiment: Activity test on Macrosiphum euphorbiae (aphides) on potato plants. It is filed as in vivo. From the text:
Small potato plants, grown in pots, were infested with adult aphide females and, after a few hours, subjected to besprinkling with an aqueous dispersion of the product of Example 1, at a concentration of 0.1%. The percentual death-rate turned out to be 100% (on small untreated plants = 0).
(§1) In order to show how the compounds of the invention have different activities depending on the species at varying concentrations, the death-rate percentages on various infesting kinds of compounds of the invention at varying concentrations of active principle have been recorded in Table II.

Another data set has as its system Culex pipiens. As to the kind of experiment: Activity test on Culex pipiens larvae in aqueous dispersion. Format: in vivo.
Description: Into glasses containing an aqueous dispersion of the product of Example 1 and at a concentration of 0.005 parts per million, p.p.m.: there were introduced larvae of third and fourth age.
as §1

In data set [2] the test system is Leptinotarsa decemlineata. As to the kind of experiment: Activity test on Leptinotarsa decemlineata larvae on potato plants. To be noted: for mortality at 1 %: read-out: % mort. Leptinot. Decemlin. Format: in vivo.
Description: Potato plants grown in pots were infested with 4-day old larvae and subjected to besprinkling with an aqueous 0.1% dispersion of the product of Example 1.
as §1

Data set [3] in a line: Acute oral toxicity (DL 50) in the albino mouse. To be noted: in vivo.
For another data set, the system named is Tetran. Urt. adults. As to the kind of experiment: Activity on Tetran. Urt. adults (Table II). It is filed as in vivo.
Description: as §1

The subject of a further data set is Spodopt. Littoralis. As to the kind of experiment: Activity on Spodopt. Littoralis (Table II). To be noted: 1 % a.p. It is filed as in vivo.
Description: as §1

The subject of a further data set is Pieris Brassicae. As to the kind of experiment: Activity on Pieris Brassicae (Table II). It is filed as in vivo. To be noted: read-out: % mort. Pieris Brassicae.
Description: as §1

Data set [4] has as its system Musca domestica. To be noted: 0.5 γ/insect; literature compounds (Agricultural and Food Chemistry 11, 1963, p.237); cited from earlier work.
The next data set has as its system Tetran Urt. eggs. As to the kind of experiment: Activity on Tetran Urt. eggs (Table II). Format: in vivo.
Description: as §1

In the case of `CCOP(=S)(OCC)Oc1ccc([N+](=O)[O-])cc1` [Parathion, O,O-diethyl-O-p-nitrophenyl-phosphorthioate], in the data set with albino mouse, the “D.L. 50” value was 14 mg/kg.

On to `CCOP(=S)(NCC=C(Cl)Cl)Oc1cc(Cl)c(Cl)cc1Cl` (stereo not drawn) [Example 1, O-ethyl-O-(2,4,5-trichlorophenyl)-N-(3,3-dichloro-allyl)amido-thiophosphate], for which the “Percentual death-rate on Musca domestica” value in the data set with Musca domestica [1] (0.5 γ/insect, Table I) is 100%. Moreover, the death-rate with Musca domestica [1] (adult 4-day flies, topical 1 mm^3 acetone solution at 0.5 γ/mm^3, after 24 hours) is reported as 100%. In addition, the mortality at 0.1 % in the data set on Macrosiphum Euphorbiae (read-out: percentual death-rate) was determined as 100%; in [2] (4-day old larvae on potato plants, aqueous 0.1% dispersion, after 48 hrs, read-out: percentual death-rate of the larvae), 100%. Also, the mortality at 0.005 ppm in the data set with Culex pipiens (larvae of third and fourth age, 0.005 p.p.m., after 24 hours, read-out: death-rate) is 100%. For the same molecule, the LD50 (commonly the dose at which mortality reaches 50%) in data set [3] is over 100 mg/kg.

As for `CCOP(=S)(Oc1ccc(SC)c(C)c1)N(C)CC=C(Cl)Cl` (stereo not drawn) [M 7470], the “% mort. Tetran. Urt. adults” value with Tetran. Urt. adults (0,01 % a.p.) is recorded as 4%. For the same molecule, in the data set on Spodopt. Littoralis, the “% mort. Spodopt. Littoralis” value is 25%.

For `COP(=S)(NCC=C(Cl)Cl)Oc1cc(Cl)c(Cl)cc1Cl` (stereo not drawn) [M 7160], the mortality at 1 % in data set [2] (1 % a.p.) was found to be 40%. The “% mort. Spodopt. Littoralis” value with Spodopt. Littoralis came to 55%.

As to `COP(=S)(NCC=C(Cl)Cl)Oc1ccc([N+](=O)[O-])c(C)c1` (stereo not drawn) [M 7415], the mortality at 1 % in [2] (1 % a.p.) came out at 70%.

As for `CC(C)OP(=S)(NCC=C(Cl)Cl)Oc1cc(Cl)c(Cl)cc1Cl` (stereo not drawn) [M 7147], the figures for the mortality at 1 % (in [2]; with Pieris Brassicae) were 75% and 20%, respectively. Besides, the “% mort. Tetran. Urt. adults” value with Tetran. Urt. adults (1 % a.p.) is recorded as 47%.

In the case of `CCOP(=S)(NCC=C(Cl)Cl)Oc1ccc(SC)c(C)c1` (stereo not drawn) [M 7467], the mortality at 1 % in data set [2] (1 % a.p.) came out at 55%. Further, in the data set with Spodopt. Littoralis, the “% mort. Spodopt. Littoralis” value stood at 30%.

With `COP(=S)(NC(C)C)Oc1cc(Cl)c(Cl)cc1Cl` (stereo not drawn), the “Percentual death-rate on Musca domestica” value in the data set with Musca domestica [4] was 100%.

`COP(=S)(NC(C)C)Oc1ccc(Cl)cc1Cl` (stereo not drawn): the “Percentual death-rate on Musca domestica” value in the data set on Musca domestica [4] is 100%.

`COP(=S)(NCC=C(Cl)Cl)Oc1ccc(SC)c(C)c1` (stereo not drawn) [M 7466]: in the data set on Spodopt. Littoralis, the “% mort. Spodopt. Littoralis” value came to 0%.

As for `CSc1ccc(OP(=S)(NCC=C(Cl)Cl)OC(C)C)cc1C` (stereo not drawn) [Example M7468], in the data set with Culex pipiens (0,02 ppm a.p., read-out: % mort. Oulex Pipens), the mortality at 0.02 µg/mL stood at 30%. Besides, the mortality at 1 % in [2] (1 % a.p.) is 30%. Moreover, the “% mort. Tetran. Urt. adults” value in the data set on Tetran. Urt. adults (0,1 % a.p.) is 0%. Moreover, in the data set on Spodopt. Littoralis, the “% mort. Spodopt. Littoralis” value came to 0%.

On to `CSc1ccc(OP(=S)(OC(C)C)N(C)CC=C(Cl)Cl)cc1C` (stereo not drawn) [M 7471], for which the mortality at 1 % in [2] (1 % a.p.) was 65%. Further, the mortality at 0.1 % in the data set on Pieris Brassicae (0,1 % a.p.) was 0%. Besides, in the data set on Tetran. Urt. adults (1 % a.p.), the “% mort. Tetran. Urt. adults” value came out at 57%. The “% mort. Spodopt. Littoralis” value with Spodopt. Littoralis worked out at 0%.

For the molecule `CCOP(=S)(NCC=C(Cl)Cl)Oc1ccc([N+](=O)[O-])c(C)c1` (stereo not drawn) [M 6986], the mortality at 1 % in the data set on Macrosiphum Euphorbiae (1 % a.p., read-out: % mort. Macrosiphum Euphorbiae) stood at 100%; in [2] (1 % a.p.), 40%; with Pieris Brassicae (1 % a.p.), 100%. Also, in the data set on Culex pipiens (0,2 ppm a.p., read-out: % mort. Oulex Pipens), the mortality at 0.2 µg/mL came to 100%. Besides, the mortality at 2 µg/mL with Culex pipiens (read-out: % mort. Oulex Pipens) worked out at 100%. For the same molecule, in the data set with Tetran. Urt. adults (1 % a.p.), the “% mort. Tetran. Urt. adults” value is on record as 26%. Moreover, the “% mort. Tetran Urt. eggs” value in the data set on Tetran Urt. eggs (1 % a.p.) came to 12%. Besides, the “% mort. Spodopt. Littoralis” value in the data set on Spodopt. Littoralis is reported as 5%.

`COP(=S)(NCC(C)C)Oc1cc(Cl)c(Cl)cc1Cl` (stereo not drawn): the “Percentual death-rate on Musca domestica” value with Musca domestica [4] is listed as 92%.

With `COP(=S)(NC(C)(C)C)Oc1cc(Cl)c(Cl)cc1Cl` (stereo not drawn), the “Percentual death-rate on Musca domestica” value with Musca domestica [4] is 13%.

Turning to `COP(=S)(Oc1ccc(SC)c(C)c1)N(C)CC=C(Cl)Cl` (stereo not drawn) [Example M7469], the mortality at 1 % in [2] was 20%. The “% mort. Tetran Urt. eggs” value in the data set with Tetran Urt. eggs (0,1 % a.p.) is recorded as 24%; in the data set with Tetran Urt. eggs (1 % a.p.) it was 100%. Besides, the “% mort. Spodopt. Littoralis” value in the data set on Spodopt. Littoralis came out at 15%.

Source of the values: patent US4087489A, “Insecticidal N-polychloroallylamido-thiophosphoric esters” (priority 1975, dated 1978).
